From patent publication US8937183B2, “Detection of hydrogen peroxide” (Promega Corporation, priority 2011, dated 2015)

Tests used:
[1] = Light generation from compounds following incubation with hydrogen peroxide in different pH solutions (D-cysteine conversion, LDR); assay type: biochemical; details: for Signal to Background Ratios: signal with peroxide to background no peroxide
Protocol: In this experiment, various compounds were tested for their ability to detect hydrogen peroxide in different pH solutions. Several compounds are shown to give much better signal strength and signal to background ratios than PBI 3048 (Example 23). 4 mg/ml solutions of compounds PBI 4480, 4481, 4452, 4470, 4472, 3048 (FIGS. 1 and 2) were made by dissolving them in DMSO (Fluka 41641). 30 μl of the compound solutions was diluted to 1.5 ml with Nanopure water, and 50 μl aliquots added as follows into a white, 96-well luminometer plate: PBI 4481, row A1-12; PBI 4480, row B1-12; PBI 4452, row C1-12; PBI 3048, row D1-12; PBI 4472, row E1-12 and PBI 4470, row F1-12.
25 μl of 200 mM TRIS buffer, pH 7.6 was added to wells A1-F4, 25 μl of 200 mM TRIS buffer, pH 8.8 was added to wells A5-F8, and 25 μl of 200 mM Tris buffer, pH 10.4 was added […].
30% hydrogen peroxide (Sigma H 1009-5 ml) was diluted to 40 μM in Nanopure water, and 25 μl added to columns 3, 4, 7, 8, 11 and 12 of the plate. 25 μl water was added to columns 1, 2, 5, 6, 9, and 10 of the plate, and the plate incubated at room temperature for 60 minutes.
A conversion solution was made by mixing 100 μl of 100 mM D-cysteine, 1 ml Tris Buffer pH 8.8 and 8.9 ml nanopure water. After mixing, 80 μl of the solution was added to wells A1-F12 of a new luminometer plate.
After incubation, 20 μl of sample from wells A1-F12 of the first plate was transferred to the same well in the new luminometer plate. The new plate was incubated at room temperature for 5 minutes, 100 μl of LDR (Example 23) was added to wells A1-F12, and bioluminescence detected on a Glo Max® luminometer (Promega).
The RLUs for the duplicate wells were averaged. The averages for the wells containing hydrogen peroxide were compared to the wells without hydrogen peroxide at the same pH (Table 2). BZT is used to designate benzothiazole derivatives of the compounds.
The Signal to Background (S/B) ratio is used to compare assay reagents with very difference signal strengths. An assay with a higher S/B ratio is often considered a better assay than one with a smaller S/B ratio (with all other factors being relatively equal).

[2] = Detection of hydrogen peroxide using coelenterazine borate with NanoLuc luciferase; assay type: biochemical; details: 12.5 uM compound, 40 ng/ml NanoLuc luciferase, 200 mM Tris-Cl pH 8.5 or pH 9.0, FIG. 3
Protocol: PBI 4759 (10 mM; final concentration 12.5 uM), various concentrations of hydrogen peroxide and 40 ng/ml NanoLuc™ luciferase enzyme (Promega Corporation) were added to wells of a 96-well assay plate containing 200 mM Tris-Cl either at pH 8.5 or pH 9.0. Luminescence was detected on a GloMax® luminometer.

[3] = pH 7.6 TRIS buffer, No H2O2, 60 minutes
[4] = pH 7.6 TRIS buffer, With H2O2 (25 μl of 40 μM added), 60 minutes
[5] = pH 8.8 TRIS buffer, No H2O2, 60 minutes
[6] = pH 8.8 TRIS buffer, With H2O2 (25 μl of 40 μM added), 60 minutes
[7] = pH 10.4 Tris buffer, No H2O2, 60 minutes
[8] = pH 10.4 Tris buffer, With H2O2 (25 μl of 40 μM added), 60 minutes

| Structure (SMILES) | Signal to Background Ratios ([1]; pH 7.6) | averaged RLUs (bioluminescence) [1, 3] | averaged RLUs (bioluminescence) [1, 4] | Signal to Background Ratios ([1]; pH 8.8) | averaged RLUs (bioluminescence) [1, 5] | averaged RLUs (bioluminescence) [1, 6] | Signal to Background Ratios ([1]; pH 10.4) | averaged RLUs (bioluminescence) [1, 7] | averaged RLUs (bioluminescence) [1, 8] | detection of hydrogen peroxide by luminescence (in words) [2] |
| --- | --- | --- | --- | --- | --- | --- | --- | --- | --- | --- |
| N#Cc1nc2ccc(OCc3ccc(B(O)O)cc3)cc2s1 [PBI 4452, (4-(((2-cyanobenzo[d]thiazol-6-yl)oxy)methyl)phenyl)boronic acid] | 1.9 | 607,036 RLU | 1,182,338 RLU | 4.4 | 632,327 RLU | 2,790,924 RLU | 15.8 | 921,935 RLU | 14,577,312 RLU | – |
| N#Cc1nc2ccc(OCc3ccc(B(O)O)c(Cl)c3)cc2s1 [PBI 4470, (2-chloro-4-(((2-cyanobenzo[d]thiazol-6-yl)oxy)methyl)phenyl)boronic acid] | 1.4 | 492,941 RLU | 701,300 RLU | 3.3 | 468,729 RLU | 1,525,058 RLU | 16.3 | 819,416 RLU | 13,391,102 RLU | – |
| CC1(C)OB(c2ccc(COc3c(Cc4ccco4)nc4c(Cc5ccccc5)nc(-c5ccccc5)cn34)cc2)OC1(C)C [PBI 4759, 8-benzyl-2-(furan-2-ylmethyl)-6-phenyl-3-((4-(4,4,5,5-tetramethyl-1,3,2-dioxaborolan-2-yl)benzyl)oxy)imidazo[1,2-a]pyrazine] | – | – | – | – | – | – | – | – | – | allows sensitive detection of hydrogen peroxide |
